Source: patent publication US20240350494A1, “THERAPEUTIC MODULATION OF INTEGRINS” (Pliant Therapeutics, Inc., priority 2021, published 2024)
“Also recorded” adds a separate entry of the source.

Assays:
[1] = system: IPF-derived human lung fibroblasts; test: LAP adhesion assay, IPF-derived human lung fibroblasts (express αVβ1); format: cell-based; conditions: LAP-coated plates, cell index, xCELLigence; FIG. 1B
Procedure: Two latency associated peptide (LAP) adhesion binding assays were devised using primary human lung cells, including normal (healthy) human bronchial epithelial cells and human lung fibroblasts (healthy and IPF).
Human lung fibroblasts derived from normal and IPF lung tissue are known to express αVβ1 integrin. The IPF-derived human lung fibroblasts were prepared for the assay by dissociation with trypsin/EDTA, and were seeded at 20,000 cells per well on 96 well plates (ACEA Bioscience E-plate View, Acea Biosciences; San Diego, CA) previously coated with 5 µg/ml of recombinant human LAP (R&D Systems; Minneapolis, MN) and blocked with 4% bovine serum albumin. Cell index (electrical impedance) was measured to assess cell attachment/spreading every 3 minutes for 24 hours at 37° C./5% CO2 using the xCELLigence RTCA MP Instrument (Acea Biosciences; San Diego, CA). […] In the assay, the IPF-derived human lung fibroblasts were separately incubated with: the αVβ1-selective small molecule inhibitor; the selective antibody αVβ6 inhibitor, 3G9; and compound 5.

SMAD3 phosphorylation = test: pSMAD3/SMAD3 in lung tissue and BALF of healthy mice; format: in vivo; conditions: 4 days of treatment, dose dependent
Text: It has been previously shown that inhibition of αVβ6 in the lung can be detected though measurement of phospho-SMAD (pSMAD) in alveolar macrophages. Alveolar macrophages are known to operate in a unique niche in the lung, distinct from interstitial macrophages. SMAD3 is a downstream target of the active TGF-β cytokine binding its receptor and in alveolar macrophages it is phosphorylated by homoeostatic levels of TGF-β. Accordingly, it was desirable to know whether inhibition of TGF-β activation using the disclosed compounds would result in reduced SMAD2 and SMAD3 phosphorylation.
FIG. 2A is a graph of PSMAD3/SMAD3 in lung tissue from healthy mice administered PBS vehicle and varying levels of compound 5 for 4 days. FIG. 2B is a graph of PSMAD3/SMAD3 in BALF drawn from the same healthy mice administered PBS vehicle and varying levels of compound 5 for 4 days.

lung Col1a1 expression = test: Precision cut lung slices, chronic bleomycin exposure, Col1a1 expression; format: cell-based, mice (C57BL/6); conditions: 7 days culture
Procedure: (§1) Mice (C57BL/6) were administered 3 U/kg of bleomycin (Teva Pharmaceuticals; North Wales, PA) on Day 0 and 1 U/kg of bleomycin on days 14, 28, 42 and 56 via oropharyngeal aspiration while under anesthesia. At day 70, 14 days after the final bleomycin insult, precision cut lung slices were obtained. Following euthanization, 2% low gelling temp agarose was injected into the mouse lungs via the trachea. […] The lobes were then subjected to precision slicing to obtain samples for culture using a microtome (Compresstome VF-300-OZ, Precisionary; Greenville, NC). Individual slices were distributed in a multiwell culture plate and cultured for 7 days under control (DMSO) and test compound conditions. The viability of the slices over the course of culturing was confirmed by WST-1 assay of mitochondrial activity.
During the culture period, slices in the control group were treated with DMSO and slices in the test group were treated with a DMSO solution of one of: the selective antibody αVβ6 inhibitor 3G9; the αVβ1-selective small molecule inhibitor; a combination of the selective antibody αVβ6 inhibitor 3G9 and the αVβ1-selective small molecule inhibitor; compound 5; and the small molecule ALK5 inhibitor. The selective αVβ1 and αVβ6 integrin inhibitors were analyzed at ≥their respective IC90 concentrations for inhibition of TGF-beta activation. Compound 5 was run at approximate IC50 for inhibition of TGF-beta activation by αVβ6.
as §1, with “following” for “after”
During the culture period, slices in the control group were treated with DMSO and slices in the test group were treated with a DMSO solution of one of: compound 5; nintedanib; pirfenidone; a combination of nintedanib and compound 5; a combination of pirfenidone and compound 5; or the small molecule ALK5 inhibitor. Compound 5 was […] effective to equal or exceed its respective IC50 values at αVβ6 and αVβ1. […] Nintendanib and pirfenidone were analyzed at concentrations 10× their reported therapeutic concentrations.

[2] = Phase 2a trial in IPF, pharmacokinetics; format: in vivo, human
Text: Overall Summary of Safety Pharmacokinetics.

[3] = system: Quantitative Lung Fibrosis (QLF); test: Phase 2a trial in IPF, HRCT-based Quantitative Lung Fibrosis; format: in vivo, human; conditions: baseline to week 12, CT Protocol Population
Text: The exploratory endpoints of the trial measured changes in forced vital capacity (FVC), HRCT-based Quantitative Lung Fibrosis score (QLF), and selected biomarkers over 3 months of treatment.
FIG. 29 illustrates the Mean Percent Change in Quantitative Lung Fibrosis (the extent from baseline to week 12 in the CT Protocol Population), using High-Resolution Computed Tomography (HRCT) based Quantitative Lung Fibrosis (QLF) imaging.

PRO-C3 and PRO-C6 = test: Phase 2a trial in IPF, serum biomarkers of collagen synthesis; format: in vivo, human; conditions: IPF participants
Text: FIG. 27 (PRO—C3 Type III collagen synthesis neoepitope) and FIG. 28 (PRO—C6 TypeVI collagen synthesis neoepitope) compare serum biomarkers of collagen synthesis in Compound 5 groups versus placebo groups. Compound 5 decreased serum biomarkers of collagen synthesis relative to placebo. […] LS=Least Squares, SEM=Standard Error of Mean.

COCCN(CCCCc1ccc2c(n1)NCCC2)CC[C@H](Nc1ncnc2ccccc12)C(=O)O [Compound 5, (S)-4-((2-methoxyethyl)(4-(5,6,7,8-tetrahydro-1,8-naphthyridin-2-yl)butyl)amino)-2-(quinazolin-4-ylamino)butanoic acid]
inhibition of cell adhesion in the IPF-derived lung fibroblasts [1]: substantially inhibited | SMAD3 phosphorylation (PSMAD3/SMAD3) in lung tissue (SMAD3 phosphorylation; FIG. 2A): approximately 50 % of the untreated levels | SMAD3 phosphorylation (PSMAD3/SMAD3) in cells isolated from BALF (SMAD3 phosphorylation; FIG. 2B): approximately 50 % of the untreated levels | lung Col1a1 expression, normalized to DMSO control slices (lung Col1a1 expression; Compound 5 at approximate IC50 (αVβ6), selective inhibitors at ≥IC90, ALK5 inhibitor at 10× IC50, FIG. 3B): decreased lung Col1a1 expression substantially | decrease of lung Col1a1 expression compared with combined 3G9 and αVβ1-selective inhibitor (lung Col1a1 expression; FIG. 3B): to a greater extent than combined administration | lung slice Col1a1 expression compared to DMSO vehicle control slices (lung Col1a1 expression; nintedanib and pirfenidone at 10× therapeutic concentrations, ALK5 inhibitor at 10× IC50, FIG. 4A): substantial, statistically significant (p<0.01 vs vehicle) decrease | dose proportionality of plasma concentrations ([2]; IPF participants, 40-160 mg QD, sparse sampling): generally dose proportional increases; also recorded: increased approximately proportionally with dose | pharmacokinetic profile ([2]; IPF patients, 12-week treatment): favorable pharmacokinetic profile | Improvers < −2% QLF extent change, (%) ([3]; 40 mg (N = 15)): 6.6% | Median, QLF extent change ([3]; 40 mg (N = 15)): 1.50% | Stable [−2, 2%) QLF extent change, (%) ([3]; 40 mg (N = 15)): 46.7% | Worse > 2% QLF extent change, (%) ([3]; 40 mg (N = 15)): 46.7% | Improvers < −2% QLF extent change, (%) ([3]; 80 mg (N = 18)): 11.1% | Mean Difference (SD), QLF extent ([3]; 80 mg (N = 18)): 0.70% | Median, QLF extent change ([3]; 80 mg (N = 18)): −0.45% | Stable [−2, 2%) QLF extent change, (%) ([3]; 80 mg (N = 18)): 72.2% | Worse > 2% QLF extent change, (%) ([3]; 80 mg (N = 18)): 16.7% | Improvers < −2% QLF extent change, (%) ([3]; 160 mg (N = 14)): 28.6% | Mean Difference (SD), QLF extent ([3]; 160 mg (N = 14)): 0.00% | Median, QLF extent change ([3]; 160 mg (N = 14)): −0.10% | Stable [−2, 2%) QLF extent change, (%) ([3]; 160 mg (N = 14)): 50.0% | Worse > 2% QLF extent change, (%) ([3]; 160 mg (N = 14)): 21.4% | change from baseline of serum PRO-C3 (type III collagen synthesis) vs. placebo (PRO-C3 and PRO-C6; FIG. 27): decreased; also recorded: reduced in participants receiving Compound 5 vs. placebo (not significant) | change from baseline of serum PRO-C6 (type VI collagen synthesis) vs. placebo (PRO-C3 and PRO-C6; FIG. 28): decreased; also recorded: reduced in participants receiving Compound 5 vs. placebo (not significant)
